According to patent EP4635950A1, “NOVEL CRYSTAL FORM OF GLP-1 RECEPTOR AGONIST, METHOD FOR PREPARING SAME, PHARMACEUTICAL COMPOSITION THEREOF, AND USE THEREOF” (Hangzhou Zhongmeihuadong Pharmaceutical Co., Ltd., priority 2022, dated 2024):
Converted amounts (≈) assume the structure as drawn. “Also recorded” adds a separate entry of the source. One block for each compound: values may come before it.

Assays:
Type in all cases: physicochemical
[1] = Crystal form change on heating in the DSC test
[2] = Crystal form stability on drying or sealed storage
Description: The 4 metastable crystal forms described in Example 4 had lower crystal form stability than each crystal form described in Example 3.

[3] = Equilibrium solubility, 24 hours at 37°C in 4 media, with XRPD of residual solid; conditions: for Crystal Form: XRPD
Experimental: After 24 hours, samples were taken and centrifuged for separation. The obtained solids were tested by XRPD, and the supernatants were filtered for solubility testing.

[4] = Hygroscopicity by dynamic vapor sorption (DVS) at 25°C
[5] = Solid-state stability under long-term and accelerated conditions (HPLC purity, crystal form); conditions: for Purity (% Area) / purity decrease: 10 days
Description: [table] […] Table E-3: Results of Solid-State Stability Determination

[6] = High-temperature stability at 60°C (HPLC purity, crystal form); conditions: for Purity (% Area) / purity decrease: 60°C
Description: [table] […] Table E-4: Results of High-Temperature Stability Determination

[7] = High-humidity stability at 90% RH (HPLC purity, crystal form); conditions: for Purity (% Area) / purity decrease: 90% RH
Description: [table] […] Table E-5: Results of High-Humidity Stability Determination

[8] = Pressure stability at 1000 Mpa for 5 minutes (HPLC purity, crystal form)
Description: [table] […] Table E-6: Results of Pressure Stability Determination

[9] = Suspension competition test of Crystal Form A and Crystal Form G; conditions: Crystal Form A and Crystal Form G in EtOH and a mixture of MeOH and water, room temperature and 50°C
[10] = heated to 120 °C for 10 minutes

- crystal form change on heating [1, 10]: converts into an amorphous form
SMILES: O=C(O)c1ccc2nc(CN3CCC(c4cccc(OCc5ccc(C6COC6)cc5F)n4)CC3)n(C[C@@H]3CCO3)c2c1 [Crystal Form D, (S)-2-((4-(6-((2-fluoro-4-(oxetan-3-yl)benzyl)oxy)pyridin-2-yl)piperidin-1-yl)methyl)-1-(oxetan-2-ylmethyl)-1H-benzo[d]imidazole-6-carboxylic acid]

- crystal form change on heating ([1]; heated to 110°C for 5 minutes): transforms into an amorphous form
SMILES: O=C(O)c1ccc2nc(CN3CCC(c4cccc(OCc5ccc(C6COC6)cc5F)n4)CC3)n(C[C@@H]3CCO3)c2c1 [Crystal Form C, (S)-2-((4-(6-((2-fluoro-4-(oxetan-3-yl)benzyl)oxy)pyridin-2-yl)piperidin-1-yl)methyl)-1-(oxetan-2-ylmethyl)-1H-benzo[d]imidazole-6-carboxylic acid]

- crystal form change on heating [1, 10]: converts into an amorphous form
SMILES: O=C(O)c1ccc2nc(CN3CCC(c4cccc(OCc5ccc(C6COC6)cc5F)n4)CC3)n(C[C@@H]3CCO3)c2c1 [Crystal Form E, (S)-2-((4-(6-((2-fluoro-4-(oxetan-3-yl)benzyl)oxy)pyridin-2-yl)piperidin-1-yl)methyl)-1-(oxetan-2-ylmethyl)-1H-benzo[d]imidazole-6-carboxylic acid]

- crystal form change on heating [1, 10]: transforms into an amorphous form
SMILES: O=C(O)c1ccc2nc(CN3CCC(c4cccc(OCc5ccc(C6COC6)cc5F)n4)CC3)n(C[C@@H]3CCO3)c2c1 [Crystal Form J, (S)-2-((4-(6-((2-fluoro-4-(oxetan-3-yl)benzyl)oxy)pyridin-2-yl)piperidin-1-yl)methyl)-1-(oxetan-2-ylmethyl)-1H-benzo[d]imidazole-6-carboxylic acid]

- crystal form change on heating [1, 10]: transforms into an amorphous form
SMILES: O=C(O)c1ccc2nc(CN3CCC(c4cccc(OCc5ccc(C6COC6)cc5F)n4)CC3)n(C[C@@H]3CCO3)c2c1 [Crystal Form L, (S)-2-((4-(6-((2-fluoro-4-(oxetan-3-yl)benzyl)oxy)pyridin-2-yl)piperidin-1-yl)methyl)-1-(oxetan-2-ylmethyl)-1H-benzo[d]imidazole-6-carboxylic acid]

- crystal form change on heating [1, 10]: converts into an amorphous form
SMILES: O=C(O)c1ccc2nc(CN3CCC(c4cccc(OCc5ccc(C6COC6)cc5F)n4)CC3)n(C[C@@H]3CCO3)c2c1 [Crystal Form Ix, (S)-2-((4-(6-((2-fluoro-4-(oxetan-3-yl)benzyl)oxy)pyridin-2-yl)piperidin-1-yl)methyl)-1-(oxetan-2-ylmethyl)-1H-benzo[d]imidazole-6-carboxylic acid]

- Whether the Crystal Form Changed ([3]; 24 h in FaSSGF): YES
- Solubility after 24 h ([3]; FaSSGF): <10 µg/mL
- Solubility after 24 h ([3]; FaSSIF): 80 µg/mL (≈ 136 µM)
- Solubility after 24 h ([3]; FeSSIF): 270 µg/mL (≈ 460 µM)
- Crystal Form ([3]; solid after 24 h in FaSSGF): a hydrochloride salt was formed
- Crystal Form ([3]; solid after 24 h in FaSSIF): Crystal Form G
- Crystal Form ([3]; solid after 24 h in FeSSIF): Crystal Form G
- Crystal Form ([3]; solid after 24 h in H2O): Crystal Form G
- Sample Weight Change at 80% RH (%) [4]: 0.73%
- Purity (% Area) ([5]; 25°C/60%RH): 97.37 % Area
- Purity (% Area) ([5]; 40°C/75%RH): 97.43 % Area
- purity decrease ([5]; accelerated conditions (40°C/75% RH)): about 0.4%
- crystal form change ([5]; before and after testing, long-term and accelerated conditions): no crystal form change was observed
- Initial Purity (% Area) ([5]; initial, before storage): 97.81 % Area
- purity decrease ([5]; long-term conditions (25°C/60% RH)): about 0.4%
- Purity (% Area) ([6]; 1 day): 97.55 % Area
- purity decrease ([6]; 1 day): about 0.3%
- Purity (% Area) ([6]; 10 days): 96.63 % Area
- purity decrease ([6]; 10 days): about 1.2%
- Initial Purity (% Area) ([6]; initial, before storage): 97.81 % Area
- Purity (% Area) ([7]; 1 Day): 97.67 % Area
- purity decrease ([7]; 1 day): about 0.1%
- Purity (% Area) ([7]; 10 days): 96.53 % Area
- purity decrease ([7]; 10 days): about 1.3%
- Initial Purity (% Area) ([7]; initial, before storage): 97.81 % Area
- Purity (% Area) ([8]; 1000 Mpa, 5 min): 97.65 % Area
- purity decrease ([8]; 1000 Mpa, 5 min): about 0.2%
- Initial Purity (% Area) ([8]; initial, before pressing): 97.81 % Area
- crystal form change after drying ([2]; dried at 50°C for 3 hours): no crystal form change is observed
- outcome of suspension competition test [9]: thermodynamically more stable
SMILES: O=C(O)c1ccc2nc(CN3CCC(c4cccc(OCc5ccc(C6COC6)cc5F)n4)CC3)n(C[C@@H]3CCO3)c2c1 [Crystal Form G, (S)-2-((4-(6-((2-fluoro-4-(oxetan-3-yl)benzyl)oxy)pyridin-2-yl)piperidin-1-yl)methyl)-1-(oxetan-2-ylmethyl)-1H-benzo[d]imidazole-6-carboxylic acid]

- crystal form change on heating ([1]; heated to 105 °C for 10 minutes): transforms into an amorphous form
SMILES: O=C(O)c1ccc2nc(CN3CCC(c4cccc(OCc5ccc(C6COC6)cc5F)n4)CC3)n(C[C@@H]3CCO3)c2c1 [Crystal Form M, (S)-2-((4-(6-((2-fluoro-4-(oxetan-3-yl)benzyl)oxy)pyridin-2-yl)piperidin-1-yl)methyl)-1-(oxetan-2-ylmethyl)-1H-benzo[d]imidazole-6-carboxylic acid]

- crystal form change on heating [1, 10]: transforms into an amorphous form
SMILES: O=C(O)c1ccc2nc(CN3CCC(c4cccc(OCc5ccc(C6COC6)cc5F)n4)CC3)n(C[C@@H]3CCO3)c2c1 [Crystal Form O, (S)-2-((4-(6-((2-fluoro-4-(oxetan-3-yl)benzyl)oxy)pyridin-2-yl)piperidin-1-yl)methyl)-1-(oxetan-2-ylmethyl)-1H-benzo[d]imidazole-6-carboxylic acid]

Further lines, the compound ahead of its results:

SMILES: O=C(O)c1ccc2nc(CN3CCC(c4cccc(OCc5ccc(C6COC6)cc5F)n4)CC3)n(C[C@@H]3CCO3)c2c1 [Crystal Form P, (S)-2-((4-(6-((2-fluoro-4-(oxetan-3-yl)benzyl)oxy)pyridin-2-yl)piperidin-1-yl)methyl)-1-(oxetan-2-ylmethyl)-1H-benzo[d]imidazole-6-carboxylic acid]
- crystal form change after drying ([2]; dried at 50°C for 3.5 hours): transforms into an amorphous form; also recorded: convert into an amorphous form

SMILES: O=C(O)c1ccc2nc(CN3CCC(c4cccc(OCc5ccc(C6COC6)cc5F)n4)CC3)n(C[C@@H]3CCO3)c2c1 [Crystal Form H, (S)-2-((4-(6-((2-fluoro-4-(oxetan-3-yl)benzyl)oxy)pyridin-2-yl)piperidin-1-yl)methyl)-1-(oxetan-2-ylmethyl)-1H-benzo[d]imidazole-6-carboxylic acid]
- crystal form change after drying ([2]; dried at 50°C for 2 hours): transforms into a weakly crystalline state; also recorded: showed a weak crystalline state

SMILES: O=C(O)c1ccc2nc(CN3CCC(c4cccc(OCc5ccc(C6COC6)cc5F)n4)CC3)n(C[C@@H]3CCO3)c2c1 [Crystal Form B, (S)-2-((4-(6-((2-fluoro-4-(oxetan-3-yl)benzyl)oxy)pyridin-2-yl)piperidin-1-yl)methyl)-1-(oxetan-2-ylmethyl)-1H-benzo[d]imidazole-6-carboxylic acid]
- crystal form change after drying ([2]; dried at 50°C for 3 hours): transforms into an amorphous form; also recorded: convert into an amorphous form

SMILES: O=C(O)c1ccc2nc(CN3CCC(c4cccc(OCc5ccc(C6COC6)cc5F)n4)CC3)n(C[C@@H]3CCO3)c2c1 [Crystal Form F, (S)-2-((4-(6-((2-fluoro-4-(oxetan-3-yl)benzyl)oxy)pyridin-2-yl)piperidin-1-yl)methyl)-1-(oxetan-2-ylmethyl)-1H-benzo[d]imidazole-6-carboxylic acid]
- crystal form change after storage ([2]; sealed conditions at room temperature for 21 days): transforms into Crystal Form D; also recorded: transformed into stable Crystal Form D

SMILES: O=C(O)c1ccc2nc(CN3CCC(c4cccc(OCc5ccc(C6COC6)cc5F)n4)CC3)n(C[C@@H]3CCO3)c2c1 [Crystal Form K, (S)-2-((4-(6-((2-fluoro-4-(oxetan-3-yl)benzyl)oxy)pyridin-2-yl)piperidin-1-yl)methyl)-1-(oxetan-2-ylmethyl)-1H-benzo[d]imidazole-6-carboxylic acid]
- crystal form change on heating ([1]; heated to 110 °C for 10 minutes): transforms into an amorphous form

SMILES: O=C(O)c1ccc2nc(CN3CCC(c4cccc(OCc5ccc(C6COC6)cc5F)n4)CC3)n(C[C@@H]3CCO3)c2c1 [Crystal Form N, (S)-2-((4-(6-((2-fluoro-4-(oxetan-3-yl)benzyl)oxy)pyridin-2-yl)piperidin-1-yl)methyl)-1-(oxetan-2-ylmethyl)-1H-benzo[d]imidazole-6-carboxylic acid]
- crystal form change on heating [1, 10]: transforms into an amorphous form
